Laboratory results from publication PMC5500904 (Clinical cancer research : an official journal of the …, 2016).
Where two headings read alike, the source gives them in different places.

Experiments:
adrenocortical carcinoma = details: cited from earlier work
clinical = details: human, in vivo; for Cmax: 150 mg; for AUC(0-t): AUC0–last
[1] = cited from earlier work
[2] = test system: patients with solid tumors; details: cited from earlier work; for antitumor activity as monotherapy: single agent, solid tumors
[3] = test system: patients with advanced solid tumors; details: in vivo
IGF1R = IGF1R (Homo sapiens, UniProt P08069); assay: Phosphorylation of IGF1R in PBMCs; assay type: in vivo
Chain of IGF1R (P08069 31-1367): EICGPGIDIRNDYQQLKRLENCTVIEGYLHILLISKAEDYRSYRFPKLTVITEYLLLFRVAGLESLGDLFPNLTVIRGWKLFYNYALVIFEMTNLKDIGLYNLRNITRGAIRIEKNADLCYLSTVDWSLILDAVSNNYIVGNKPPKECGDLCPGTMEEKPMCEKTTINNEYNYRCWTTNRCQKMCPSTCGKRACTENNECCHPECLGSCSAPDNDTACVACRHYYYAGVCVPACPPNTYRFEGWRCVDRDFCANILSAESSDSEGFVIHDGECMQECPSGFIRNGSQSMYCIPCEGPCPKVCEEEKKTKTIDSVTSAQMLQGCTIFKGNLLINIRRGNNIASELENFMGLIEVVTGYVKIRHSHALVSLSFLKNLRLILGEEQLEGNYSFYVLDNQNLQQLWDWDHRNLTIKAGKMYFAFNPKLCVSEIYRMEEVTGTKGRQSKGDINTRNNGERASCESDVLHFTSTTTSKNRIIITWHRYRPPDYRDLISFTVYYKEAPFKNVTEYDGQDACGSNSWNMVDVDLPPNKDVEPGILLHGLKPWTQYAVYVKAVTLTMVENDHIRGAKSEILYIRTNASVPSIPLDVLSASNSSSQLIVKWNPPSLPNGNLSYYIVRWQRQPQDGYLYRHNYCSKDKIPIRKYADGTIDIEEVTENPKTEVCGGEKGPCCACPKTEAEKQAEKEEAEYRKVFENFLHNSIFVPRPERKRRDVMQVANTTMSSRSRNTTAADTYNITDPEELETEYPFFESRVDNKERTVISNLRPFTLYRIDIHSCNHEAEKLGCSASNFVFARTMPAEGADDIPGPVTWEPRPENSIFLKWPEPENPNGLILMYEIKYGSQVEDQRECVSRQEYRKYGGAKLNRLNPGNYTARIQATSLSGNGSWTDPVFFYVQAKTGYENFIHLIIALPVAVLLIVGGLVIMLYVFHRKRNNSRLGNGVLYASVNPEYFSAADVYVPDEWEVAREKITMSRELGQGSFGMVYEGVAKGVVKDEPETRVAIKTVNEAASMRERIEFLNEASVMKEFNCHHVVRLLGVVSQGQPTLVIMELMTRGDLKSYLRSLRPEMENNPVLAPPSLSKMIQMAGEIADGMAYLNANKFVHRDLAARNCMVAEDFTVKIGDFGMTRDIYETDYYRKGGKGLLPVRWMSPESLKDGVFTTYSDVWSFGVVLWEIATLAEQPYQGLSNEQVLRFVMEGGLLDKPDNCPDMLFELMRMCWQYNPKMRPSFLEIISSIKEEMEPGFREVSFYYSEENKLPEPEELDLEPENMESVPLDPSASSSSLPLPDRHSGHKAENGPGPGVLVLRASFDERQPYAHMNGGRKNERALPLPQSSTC

[4] = in vivo
metastatic CRC = details: combined with everolimus; cited from earlier work
advanced NSCLC = details: cited from earlier work

C[C@]1(O)C[C@@H](c2nc(-c3ccc4ccc(-c5ccccc5)nc4c3)c3c(N)nccn32)C1 [linsitinib, Linsitinib]
overall survival versus placebo arm (adrenocortical carcinoma): no difference in overall survival | patients with durable PR (adrenocortical carcinoma; linsitinib arm): 3 of 90 | concentration at 24 h (clinical): ≤ 400 ng/mL | Cmax (clinical): 2580 ng/mL | AUC(0-t) (clinical): 17900 ng·h/mL | Tmax (clinical): 3 h | plasma level associated with preclinical activity [1]: ~ 1 μmol/L | QTc prolongation versus peak concentrations of linsitinib ([2]; another study, 600 mg dose, ref unpublished data): associated with peak concentrations | half-life [2]: 5 h | monotherapy MTD ([2]; continuous once daily dosing): 400 mg | monotherapy MTD ([2]; intermittent dosing): 600 mg | antitumor activity as monotherapy [2]: partial responses (PR) in melanoma and adrenocortical carcinoma | antitumor activity as monotherapy ([2]; listed as Linsitinib): induced partial responses in adrenocortical carcinoma and melanoma | monotherapy RP2D ([2]; twice daily, continuous): 150 mg | Linsitinib-related hyperglycemia at grade 2 ([3]; human): 2 | Linsitinib-related hyperglycemia at grade 3 ([3]; human): 3 cases | Treatment-related SAEs ([3]; human): 10 of 40 (25%) patients (%) | linsitinib-related AE: fatigue ([3]; human): 12% | linsitinib-related AE: nausea ([3]; human): 11% | linsitinib-related AE: prolonged QTc interval ([3]; human): 8% | linsitinib-related AE: vomiting ([3]; human): 8% | patients discontinuing for an event related only to the named treatment ([3]; human): 1 patients | thrombocytopenia and neutropenia [3]: not observed | IGF1R phosphorylation in PBMCs (IGF1R; 2 to 24 hours after the first dose, 7 cases, S1–S3): substantially inhibited | IGF1R phosphorylation in PBMCs (IGF1R; later time points, intermittent S1 schedule): fluctuating receptor inhibition | IGF1R phosphorylation in PBMCs (IGF1R; later time points, ≥300 mg linsitinib daily in S2 and S3): persisting receptor inhibition | Cmax and AUC from time zero to infinity versus dose [4]: increased in a dose-proportional manner | drug–drug interaction (pharmacokinetic) [4]: no significant drug–drug interaction effect | clinical activity (metastatic CRC): no evidence of clinical activity

R1507: IGF1R antibody, evaluated with erlotinib in NSCLC
12-week progression-free survival rate (advanced NSCLC; R1507 with erlotinib, patients with KRAS-mutant tumors): 36% | progression-free or overall survival versus erlotinib alone (advanced NSCLC; R1507 with erlotinib, unselected patients): no progression-free survival or overall survival advantage | tolerability (advanced NSCLC; in vivo): tolerable

C#Cc1cccc(Nc2ncnc3cc(OCCOC)c(OCCOC)cc23)c1 [erlotinib, Erlotinib, reference compound]
Cmax (clinical): 1280 ng/mL | AUC(0-t) (clinical): 21100 ng·h/mL | Tmax (clinical): 4.1 h | Erlotinib-related AE: diarrhea ([3]; human): 26% | Erlotinib-related AE: drug eruption ([3]; human): 74% | Erlotinib-related AE: dry skin ([3]; human): 26% | Erlotinib-related AE: pruritus ([3]; human): 26% | Erlotinib-related AEs ([3]; human): 84 % of patients | patients discontinuing for an event related only to the named treatment ([3]; human): 3 patients | Tmax ([4]; human): 4.1 (1.9–8.4) h
